Values quoted from earlier work in patent US20250302750A1, “PHARMACEUTICAL COMPOSITION OF BEMPEDOIC ACID” (Renata Pharmaceuticals (Ireland) Ltd, priority 2022, published 2025).

How the values were obtained:
[1] = solid state; per US 20180338922

Solubility in water: poorly soluble
Flow characteristics [1]: poor flow characteristics
Stickiness [1]: very sticky
Compound: CC(C)(CCCCCC(O)CCCCCC(C)(C)C(=O)O)C(=O)O [Bempedoic acid]
